The text below walks through data of patent US20230321253A1, “BIFUNCTIONAL COMPOUNDS AND PHARMACEUTICAL USES THEREOF” (RISEN (SUZHOU) PHARMA TECH CO., LTD., priority 2022, published 2023).

One experiment deals with T1, KRAS-G12D protein (Homo sapiens, UniProt P01116, G12D).
T1 construct: host or cells: Aspc-1 cells
Put plainly: KRAS-G12D protein degradation study in Aspc-1 cells (western blot). The class given is cell-based. The following applies: for inhibition at 0.05 µM: ASPC1, 24 h, Aspc-1 cells treated with 50 nM compound, 24 hours, read-out: Rate of degradation (KRAS^G12D); for DC50: Aspc-1 cells, read-out: DC50 of test compound-induced KRAS^G12D protein degradation. The gist of the method: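 AsPC-1 cells were treated with compound for 24 h at 37° C (0.1% DMSO final), then lysed; KRAS levels measured by western blot. Degradation % = 1 − (KRAS/GAPDH, compound) ÷ (KRAS/GAPDH, DMSO), ×100; DC50 derived from concentration curves.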

In the next experiment the test system is Aspc-1 cells. The experiment in a line: Cell proliferation study in Aspc-1 cells (Cell Titer Glo). The following applies: Homo sapiens, ASPC1, 72 hours, read-out: IC50, inhibitory effect on cellular proliferation. In kind it is cell-based. The method, then: Aspc-1 (Cobioer, CBP60546) cells were grown in RPMI 1640 (Gibco, 61870127) supplemented with 10% fetal bovine serum (Gibco, 10099141), 1% penicillin-streptomycin (Gibco, 15070-063). Aspc-1 cells in exponential growth phase were seeded into 96-well plate (Corning, 3599) at density of 4×10^3/well. Cells were cultured overnight at 37° C. with 5% CO2. On the next day, cells were treated with test compound at various concentrations for 72 hours in 37° C., 5% CO2 incubator (final DMSO concentration was 0.1%). After treatment, 100 μL Cell Tier Glo (Promega, G7573) was added to every well of the cell plates and the plates were incubated at room temperature (RT) for 10 minutes. Cell growth status was measured with Cell Tier Glo (Promega, G7573) following the manufacturer's instructions. The inhibition curve was obtained with GraphPad 7.0 software using four-parameter equation.

Where only a bound is given, the exact number is not on record here.

T1 sequence (P01116 1-188 isoform P01116-2 G12D): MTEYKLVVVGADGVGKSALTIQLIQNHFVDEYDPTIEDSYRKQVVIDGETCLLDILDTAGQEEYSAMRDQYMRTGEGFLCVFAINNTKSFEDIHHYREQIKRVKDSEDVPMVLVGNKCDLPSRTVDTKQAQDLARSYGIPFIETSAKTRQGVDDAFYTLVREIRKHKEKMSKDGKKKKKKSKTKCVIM

Regarding `C#Cc1c(F)ccc2cc(O)cc(-c3ncc4c(N5CC6CCC(C5)N6)nc(OCC5(CN6CCC7(CC6)CC(N6CCC(c8ccc9c%10c(cccc8%10)C(=O)N9C8CCC(=O)NC8=O)CC6)C7)CC5)nc4c3F)c12` (stereo not shown) [Compound 158], on KRAS-G12D protein, the inhibition at 0.05 µM is greater than 60% and the half-maximal degradation concentration (DC50) was less than 10 nM. In addition, the IC50 in the experiment on Aspc-1 cells is less than 100 nM.
For `CCc1c(F)ccc2cc(O)cc(-c3ncc4c(N5CC6CCC(C5)N6)nc(OCC5(CN6CCC7(CC6)CC(N6CCC(c8ccc9c(C%10CCC(=O)NC%10=O)nn(C)c9c8)CC6)C7)CC5)nc4c3F)c12` (stereo not shown) [Compound 160] the same measures were greater than 60%, less than 10 nM and less than 100 nM.
For `C#Cc1c(F)ccc2cc(O)cc(-c3ncc4c(N5CC6CCC(C5)N6)nc(OCC5(CN6CCC7(CC6)CC(N6CCC(c8ccc9c(c8)n(C)c(=O)n9C8CCC(=O)NC8=O)CC6)C7)CC5)nc4c3F)c12` (stereo not shown) [Compound 164] the same measures were greater than 60%, less than 10 nM and less than 100 nM.
Turning to `C#Cc1c(F)ccc2cc(O)cc(-c3ncc4c(N5CC6CCC(C5)N6)nc(OCC5(CN6CCC(CN7CCC(c8ccc9c%10c(cccc8%10)C(=O)N9C8CCC(=O)NC8=O)CC7)CC6)CC5)nc4c3F)c12` (stereo not shown) [Compound 168], at KRAS-G12D protein, the inhibition at 0.05 µM was greater than 60%. In addition, the IC50 with Aspc-1 cells was less than 100 nM.
For `C#Cc1c(F)ccc2cc(O)cc(-c3ncc4c(N5CC6CCC(C5)N6)nc(OCC5(CN6CC7(CC(N8CCC(c9ccc%10c(C%11CCC(=O)NC%11=O)nn(C)c%10c9)CC8)C7)C6)CC5)nc4c3F)c12` (stereo not shown) [Compound 169] the same measures were greater than 60% and less than 100 nM.
